Measurements as given in paper PMC4987650, “Structural Investigation of Park’s Nucleotide on Bacterial Translocase MraY: Discovery of Unexpected MraY Inhibitors” (Scientific Reports, 2016).

Assays:
Type in all cases: biochemical
MraYBS Q271A mutant [1] = target: T1, MraYBS Q271A mutant (Bacillus subtilis, UniProt Q03521, Q271A); assay: HPLC-based MraY functional assay, mutant MraY; settings: consumption of 6 in one-hour reaction
T1 construct: MBP; made in house
Method: (§1) The purified MraY from Bacillus subtilis was prepared as described in our previous reports. For 5 and 7–10, the reaction mixture containing MraYBS (10 μg/mL), C55P (200 μM) in 40 μL reaction buffer (30 mM Tris, 10 mM MgCl2, 10 mM NaCl, 0.1 mM Tween-20, 2.5% DMSO, pH 8.0) were pre-incubated at 37 °C for 15 min. The reactions were initiated by the addition of Park’s nucleotide analogues (10 μM) and incubated at 37 °C for 1 h. The reaction mixtures were added by uridine (0.01 mg/mL) as the internal standard and heated to 100 °C to stop the transferring reaction. The samples were analyzed by RP-C18 HPLC with gradient elution of 0.25 M NH4HCO3(aq)/15% MeOH in water (100:0 to 0:100) at a flow rate of 1 mL/min over 45 min, and the peaks of substrates were monitored at UV 260 nm. […] The reaction mixtures were heated to 100 °C to stop the transferring reaction, and samples were analyzed by an anion-exchange column (SAX1, Supelco Co., 5 μm, 4.6 × 250 mm) with a linear gradient elution of NH4OAc (20 mM to 1 M in MeOH) at a flow rate of 1.0 mL/min over 30 min. The fluorescent substrates were monitored with λex 466 nm/λem 535 nm by fluorescence detector. […]

MraYBS K226A mutant = target: T2, MraYBS K226A mutant (Bacillus subtilis, UniProt Q03521, K226A); assay: Fluorescent enhancement assay, mutant MraY; settings: 6 as the substrate
T2 construct: MBP; made in house
Method: (§2) Site–directed mutagenesis of MraY. Site-directed mutagenesis of the B. subtilis MBP-tagged MraY enzyme was performed directly on the pMAL -BS-MraY-16 expression plasmid by using the “Quickchanged XL Site-Directed Mutagenesis Kit ’’ from stratagene and the oligonucleotides shown below. Mutations introduced in the mraY gene sequence were checked by DNA sequencing. […]
(§3) MraY-T51A-R 5’-[…]-3’
(§4) T53A MraY-T53A-F 5’-[…]-3’
(§5) MraY-T53A-R 5’-[…]-3’
(§6) K102A MraY-K102A-F 5’-[…]-3’
(§7) MraY-K102A-R 5’-[…]-3’
(§8) K226A Mray-K226A-F 5’-[…]-3’ […]
(§9) F228A MraY-F228A-F 5’-[…]-3’
(§10) MraY-F228A-R 5’-[…]-3’
(§11) Q271A Mray-Q271A-F 5’-[…]-3’
(§12) Mray-Q271A-R 5’-[…]-3’
(§13) R281A MraY-R281A-F 5’-[…]-3’
(§14) MraY-R281A-R 5’-[…]-3’
(§15) W297A MraY-W297A-F 5’-[…]-3’
(§16) MraY-W297A-R 5’-[…]-3’
(§17) Determine kinetic parameters by MraY fluorescence enhancement assay. The fluorescence enhancement assay was performed in 384-well plate as described by Bugg et al. with slight modifications.5 The reaction mixture containing MraYBS (10 μg/mL), C55P (200 μM) in 30 μL reaction buffer (30 mM Tris, 10 mM MgCl2, 10 mM NaCl, 0.1 mM Tween-20, 2.5% DMSO, pH 8.0) were pre-incubated at 37 °C for 15 min. The reactions were initiated by the addition of various concentrations of NBD-Park’s nucleotide 6 (0 to 160 μM). For inhibition study, a various concentrations of inhibitors were added before the addition of substrate 6. The continuous fluorescence increase over 60 min was monitored with λex 466 nm/λem 535 nm by fluorescence microplate reader (SpectraMax M5, Molecular Devices, LLC) at 37 °C. Linear regressions of increased fluorescent units (FLU) versus time (min) were used to calculate the initial velocities for each reaction. The kinetic parameters values (Ki, KM, and Vmax) were obtained by nonlinear regression analysis using the […] equation with the GraphPad Prism program (GraphPad Software, San
(§18) (1 picture or pasted object on this page, not shown here)

MraYBS T51A mutant = target: T3, MraYBS T51A mutant (Bacillus subtilis, UniProt Q03521, T51A); assay: Fluorescent enhancement assay, mutant MraY; settings: 6 as the substrate
T3 construct: MBP; made in house
Method: as §2, §3, §4, §5, §6, §7, §8, §9, §10, §11, §12, §13, §14, §15, §16, §17, §18

MraYBS K102A mutant [2] = target: T4, MraYBS K102A mutant (Bacillus subtilis, UniProt Q03521, K102A); assay: Fluorescent enhancement assay, mutant MraY; settings: 6 as the substrate
T4 construct: MBP; made in house
Method: as §2, §3, §4, §5, §6, §7, §8, §9, §10, §11, §12, §13, §14, §15, §16, §17, §18

MraYBS W297A mutant [3] = target: T5, MraYBS W297A mutant (Bacillus subtilis, UniProt Q03521, W297A); assay: Fluorescent enhancement assay, mutant MraY; settings: 6 as the substrate
T5 construct: MBP; made in house
Method: as §2, §3, §4, §5, §6, §7, §8, §9, §10, §11, §12, §13, §14, §15, §16, §17, §18

MraYBS Q271A mutant [4] = target: T1, MraYBS Q271A mutant; assay: Fluorescent enhancement assay, mutant MraY; settings: 6 as the substrate
Method: as §2, §3, §4, §5, §6, §7, §8, §9, §10, §11, §12, §13, §14, §15, §16, §17, §18

MraYBS T53A mutant = target: T6, MraYBS T53A mutant (Bacillus subtilis, UniProt Q03521, T53A); assay: Fluorescent enhancement assay, mutant MraY; settings: 6 as the substrate
T6 construct: MBP; made in house
Method: as §2, §3, §4, §5, §6, §7, §8, §9, §10, §11, §12, §13, §14, §15, §16, §17, §18

MraYBS R281A mutant = target: T7, MraYBS R281A mutant (Bacillus subtilis, UniProt Q03521, R281A); assay: Fluorescent enhancement assay, mutant MraY; settings: 6 as the substrate
T7 construct: MBP; made in house
Method: as §2, §3, §4, §5, §6, §7, §8, §9, §10, §11, §12, §13, §14, §15, §16, §17, §18

MraYBS F228A mutant [5] = target: T8, MraYBS F228A mutant (Bacillus subtilis, UniProt Q03521, F228A); assay: Fluorescent enhancement assay, mutant MraY; settings: 6 as the substrate
T8 construct: MBP; made in house
Method: as §2, §3, §4, §5, §6, §7, §8, §9, §10, §11, §12, §13, §14, §15, §16, §17, §18

MraYBS F228A mutant [6] = target: T8, MraYBS F228A mutant; assay: HPLC-based MraY functional assay, mutant MraY; settings: consumption of 6 in one-hour reaction
Method: as §1

MraYBS K102A mutant [7] = target: T4, MraYBS K102A mutant; assay: HPLC-based MraY functional assay, mutant MraY; settings: consumption of 6 in one-hour reaction
Method: as §1

MraYBS W297A mutant [8] = target: T5, MraYBS W297A mutant; assay: HPLC-based MraY functional assay, mutant MraY; settings: consumption of 6 in one-hour reaction
Method: as §1

## CC(=O)N[C@H]1[C@@H](OP(=O)(O)OP(=O)(O)OC[C@H]2O[C@@H](n3ccc(=O)[nH]c3=O)[C@H](O)[C@@H]2O)O[C@H](CO)[C@@H](O)[C@@H]1O[C@H](C)C(=O)N[C@@H](C)C(=O)N[C@H](CCC(=O)N[C@@H](CCCCNC(=O)CCCCCNc1ccc([N+](=O)[O-])c2nonc12)C(=O)N[C@H](C)C(=O)N[C@H](C)C(=O)O)C(=O)O [Compound 6, NBD-Park’s nucleotide]
MraYBS Q271A mutant [1]
  Relative activity: 16%
MraYBS K226A mutant
  Vmax: 23 ± 4.7 FLU/min
MraYBS T51A mutant
  Vmax: 5 ± 0.2 FLU/min
MraYBS K102A mutant [2]
  Vmax: 5 ± 0.2 FLU/min
MraYBS W297A mutant [3]
  Vmax: 4 ± 0.4 FLU/min
MraYBS Q271A mutant [4]
  Vmax: 6 ± 1.7 FLU/min
MraYBS T53A mutant
  Vmax: 7 ± 0.8 FLU/min
MraYBS R281A mutant
  Vmax: 10 ± 1.4 FLU/min
MraYBS F228A mutant [5]
  Vmax: 10 ± 1.5 FLU/min
MraYBS F228A mutant [6]
  Relative activity: 98%
MraYBS K102A mutant [7]
  Relative activity: 33%
MraYBS W297A mutant [8]
  Relative activity: 17%
